`CCCCCCCC[n+]1ccn(C)c1.O=[N+]([O-])[O-]` showed a solubility (mole fraction) (in benzene, 298.15 K) of 0.000303, a solubility (mole fraction) (in benzene, 303.15 K) of 0.000357 and a solubility (mole fraction) (in benzene, 308.15 K) of 0.00041. For the same molecule, the solubility (mole fraction) (in benzene, 313.15 K) was 0.00049, the solubility (mole fraction) (in benzene, 318.15 K) was 0.000572 and the solubility (mole fraction) (in benzene, 323.15 K) was 0.000661. The solubility (mole fraction) (in benzene, 328.15 K) was 0.000751, the solubility (mole fraction) (in benzene, 333.15 K) was 0.00086 and the solubility (mole fraction) (in benzene, 338.15 K) was 0.000981. The solubility (mole fraction) (in benzene, 343.15 K) was 0.00111, the solubility (mole fraction) (in cyclohexane, 293.15 K) was 0.000775 and the solubility (mole fraction) (in cyclohexane, 298.15 K) was 0.000901. The solubility (mole fraction) (in cyclohexane, 303.15 K) was 0.00106, the solubility (mole fraction) (in cyclohexane, 308.15 K) was 0.00124 and the solubility (mole fraction) (in cyclohexane, 313.15 K) was 0.00146. For the same molecule, the solubility (mole fraction) (in cyclohexane, 318.15 K) was 0.00169, the solubility (mole fraction) (in cyclohexane, 323.15 K) was 0.00191 and the solubility (mole fraction) (in cyclohexane, 328.15 K) was 0.00212. For the same molecule, the solubility (mole fraction) (in cyclohexane, 333.15 K) was 0.00244, the solubility (mole fraction) (in cyclohexane, 338.15 K) was 0.00275 and the solubility (mole fraction) (in m-xylene, 298.15 K) was 0.00526. For the same molecule, the solubility (mole fraction) (in m-xylene, 303.15 K) was 0.00566, the solubility (mole fraction) (in m-xylene, 308.15 K) was 0.00605 and the solubility (mole fraction) (in m-xylene, 313.15 K) was 0.00645. The solubility (mole fraction) (in m-xylene, 318.15 K) was 0.00685, the solubility (mole fraction) (in m-xylene, 323.15 K) was 0.00725 and the solubility (mole fraction) (in m-xylene, 328.15 K) was 0.00765. It also gave a solubility (mole fraction) (in m-xylene, 333.15 K) of 0.00805, a solubility (mole fraction) (in m-xylene, 338.15 K) of 0.00845 and a solubility (mole fraction) (in m-xylene, 343.15 K) of 0.00885. It also gave a solubility (mole fraction) (in n-heptane, 293.15 K) of 0.000342, a solubility (mole fraction) (in n-heptane, 298.15 K) of 0.000407 and a solubility (mole fraction) (in n-heptane, 303.15 K) of 0.000488. It also gave a solubility (mole fraction) (in n-heptane, 308.15 K) of 0.000586, a solubility (mole fraction) (in n-heptane, 313.15 K) of 0.000728 and a solubility (mole fraction) (in n-heptane, 318.15 K) of 0.000856. The solubility (mole fraction) (in n-heptane, 323.15 K) was 0.00101, the solubility (mole fraction) (in n-heptane, 328.15 K) was 0.00119 and the solubility (mole fraction) (in n-heptane, 333.15 K) was 0.00143. It also gave a solubility (mole fraction) (in n-heptane, 338.15 K) of 0.00166, a solubility (mole fraction) (in n-heptane, 343.15 K) of 0.00193 and a solubility (mole fraction) (in n-hexane, 288.15 K) of 0.000683. The solubility (mole fraction) (in n-hexane, 293.15 K) was 0.00078, the solubility (mole fraction) (in n-hexane, 298.15 K) was 0.000919 and the solubility (mole fraction) (in n-hexane, 303.15 K) was 0.00113. For the same molecule, the solubility (mole fraction) (in n-hexane, 308.15 K) was 0.00128, the solubility (mole fraction) (in n-hexane, 313.15 K) was 0.00162 and the solubility (mole fraction) (in n-hexane, 318.15 K) was 0.00184. The solubility (mole fraction) (in n-hexane, 323.15 K) was 0.00206, the solubility (mole fraction) (in n-hexane, 328.15 K) was 0.00232 and the solubility (mole fraction) (in n-hexane, 333.15 K) was 0.00271. It also gave a solubility (mole fraction) (in n-octane, 293.15 K) of 0.000355, a solubility (mole fraction) (in n-octane, 298.15 K) of 0.000411 and a solubility (mole fraction) (in n-octane, 303.15 K) of 0.000502. The solubility (mole fraction) (in n-octane, 308.15 K) was 0.000605, the solubility (mole fraction) (in n-octane, 313.15 K) was 0.000733 and the solubility (mole fraction) (in n-octane, 318.15 K) was 0.000866. For the same molecule, the solubility (mole fraction) (in n-octane, 323.15 K) was 0.00101, the solubility (mole fraction) (in n-octane, 328.15 K) was 0.00123 and the solubility (mole fraction) (in n-octane, 333.15 K) was 0.00145. For the same molecule, the solubility (mole fraction) (in n-octane, 338.15 K) was 0.00168, the solubility (mole fraction) (in n-octane, 343.15 K) was 0.00198 and the solubility (mole fraction) (in n-pentane, 278.15 K) was 0.000687. It also gave a solubility (mole fraction) (in n-pentane, 283.15 K) of 0.000816, a solubility (mole fraction) (in n-pentane, 288.15 K) of 0.000955 and a solubility (mole fraction) (in n-pentane, 293.15 K) of 0.0011. The solubility (mole fraction) (in n-pentane, 298.15 K) was 0.00127, the solubility (mole fraction) (in n-pentane, 303.15 K) was 0.00149 and the solubility (mole fraction) (in o-xylene, 298.15 K) was 0.005. The solubility (mole fraction) (in o-xylene, 303.15 K) was 0.00529, the solubility (mole fraction) (in o-xylene, 308.15 K) was 0.00558 and the solubility (mole fraction) (in o-xylene, 313.15 K) was 0.00587. It also gave a solubility (mole fraction) (in o-xylene, 318.15 K) of 0.00616, a solubility (mole fraction) (in o-xylene, 323.15 K) of 0.00646 and a solubility (mole fraction) (in o-xylene, 328.15 K) of 0.00675. It also gave a solubility (mole fraction) (in o-xylene, 333.15 K) of 0.00704, a solubility (mole fraction) (in o-xylene, 338.15 K) of 0.00733 and a solubility (mole fraction) (in o-xylene, 343.15 K) of 0.00762. For the same molecule, the solubility (mole fraction) (in p-xylene, 298.15 K) was 0.00308, the solubility (mole fraction) (in p-xylene, 303.15 K) was 0.00331 and the solubility (mole fraction) (in p-xylene, 308.15 K) was 0.00358. For the same molecule, the solubility (mole fraction) (in p-xylene, 313.15 K) was 0.00383, the solubility (mole fraction) (in p-xylene, 318.15 K) was 0.00408 and the solubility (mole fraction) (in p-xylene, 323.15 K) was 0.00431. It also gave a solubility (mole fraction) (in p-xylene, 328.15 K) of 0.00458, a solubility (mole fraction) (in p-xylene, 333.15 K) of 0.00483 and a solubility (mole fraction) (in p-xylene, 338.15 K) of 0.00508. For the same molecule, the solubility (mole fraction) (in p-xylene, 343.15 K) was 0.00533, the solubility (mole fraction) (in toluene, 298.15 K) was 0.000371 and the solubility (mole fraction) (in toluene, 303.15 K) was 0.00043. The solubility (mole fraction) (in toluene, 308.15 K) was 0.0005, the solubility (mole fraction) (in toluene, 313.15 K) was 0.000598 and the solubility (mole fraction) (in toluene, 318.15 K) was 0.000699. It also gave a solubility (mole fraction) (in toluene, 323.15 K) of 0.000806, a solubility (mole fraction) (in toluene, 328.15 K) of 0.000892 and a solubility (mole fraction) (in toluene, 333.15 K) of 0.00103. For the same molecule, the solubility (mole fraction) (in toluene, 338.15 K) was 0.00117 and the solubility (mole fraction) (in toluene, 343.15 K) was 0.00133.

From BigSolDB 2.1
